According to US11013232B2, “Hydrotesting and mothballing composition and method of using combination products for multifunctional water treatment” (priority 2014, dated 2021):

Key:
[1] = tested on: 5 species of bacteria in a simulated marine environment; assay: Molecular technique biocidal properties (qPCR of 16s rDNA); format: cell-based; conditions: for 7 day DNA (copies) / 14 day DNA (copies) / 21 day DNA (copies): dose rate 500 ppm
Experimental: Molecular techniques were performed on the best performing (Formulation 3) commercial product and the embodiments of the invention Formulation 1 and Formulation 2. This aim of the study was to investigate the efficiency of the biocides on inhibiting 5 species of bacteria in a simulated marine environment. This study was conducted over a 21 day period and involved several marine species of bacteria which have all been previously linked with attributing to corrosion. […] A control was used in the testing and glutaraldehyde was selected for this role.
For each species 3 individual inoculums for each replicate were grown from an isolated single colony picked from agar plates. The species used were Desulfovibrio desulfricans (SRB), Shewanella putrefaciens (IRB), Thiobacillus thioparus (SOB), Pseudomonas aeruginosa (biofilm) and Methanolibacter arachidis (methanogens). Following 24 hours of incubation on an orbital shaker, cells were centrifuged and the pelleted cells washed with phosphate buffered saline (PBS). Washed cells were then suspended in PBS and measured to a set optical density via UV spectrometry at 600 nm. Each species was then used to inoculate cultures to give a final starter concentration of 0.01 at 600 nm. Each treatment was conducted in triplicate with each replicate being started at alternative time periods to reduce culture bias and human error. Three negative controls and three positive controls were established for each temperature under study.
The trials were conducted in 125 mL Erlenmeyer flasks containing 75 mL of marine broth, which were subsequently autoclaved for 20 min at 121° C. All bottles were incubated at either 4° C. or 25° C. on an orbital shaking platform at 150 rpm. Triplicate biocide treatments were established at each temperature at concentrations of 500, 750 and 1000 ppm. At each weekly interval, 2 mL samples were collected at 7, 14 and 21 days from each bottle. These were subjected to a co-extraction of DNA which was measured with qPCR. The gene target in this study was 16s rDNA a conserved gene present in all bacteria and Achaea.

[2] = tested on: Acid Producing Bacteria (APB); assay: Most Probable Number (MPN) bacterial kill efficacy, APB; format: cell-based, mixed consortia isolated from seawater; conditions: first MPN set; for APB per mL: formulation with ammonium bisulfide, 500 ppm active biocide
Experimental: (§1) The Most Probably Number technique using a bacterial enumeration technique was performed, as described in NACE International Standard TMP 194-2004. Complex mixed consortia were isolated from seawater and subjected to the chemicals being tested. All chemicals were applied at the same active concentration. Surviving cells were assayed after exposure periods of 1, 7 and 28 days to the numbers compared with a control which received no treatments. The bottle tests were carried out using two mixed consortia—Sulfate Reducing Bacteria (SRB) and General Heterotrophic Bacteria (GHB) that also measured Acid Producing Bacteria (APB) enriched from seawater. Aliquots of the water (1 mL) were inoculated into SRB culture medium and GHB culture medium (Phenol Red Dextrose broth) respectively and sub-cultured twice. The cultures used in the tests were incubated at 30° C. for five days; these were then used to supplement seawater to achieve 10^3 to 10^4 SRB cells per mL. For the trial one control bottle and four test bottles were set up. The chemicals were added to the appropriate test bottles to give the final concentrations of each product as supplied. All chemicals were added so that 500 ppm of active biocide was present in each test. The control bottle contained seawater only with no added chemical.
(§2) At each time point, (one, seven and twenty-eight days), a sample was removed from each test bottle and the control bottle and used to inoculate the MPN vials. Bacterial counts were performed using the triplicate Most Probable Number method (triplicate MPNs). The inoculated MPN vials were incubated at 30° C. for 7 days for GHB and APB and 28 days for SRB. Results have been reported as cells per mL. […]

[3] = tested on: Sulfate Reducing Bacteria (SRB); assay: Most Probable Number (MPN) bacterial kill efficacy, SRB; format: cell-based, mixed consortia isolated from seawater; conditions: first MPN set; for SRB per mL: formulation with ammonium bisulfide, 500 ppm active biocide
Experimental: as §1, §2

[4] = tested on: General Heterotrophic Bacteria (GHB); assay: Most Probable Number (MPN) bacterial kill efficacy, GHB; format: cell-based, mixed consortia isolated from seawater; conditions: first MPN set; for GHB per mL: formulation with ammonium bisulfide, 500 ppm active biocide; for log reduction of planktonic GHB: exposure time of 24 hours
Experimental: as §1, §2

SMILES | APB per mL ([2]; 24 h exposure) | APB per mL ([2]; 7 d exposure) | APB per mL ([2]; 28 d exposure) | SRB per mL ([3]; 24 h exposure) | SRB per mL ([3]; 7 d exposure) | SRB per mL ([3]; 28 d exposure) | GHB per mL ([4]; 24 h exposure) | GHB per mL ([4]; 7 d exposure) | GHB per mL ([4]; 28 d exposure) | log reduction of planktonic GHB [4] | also measured
O=CCCCC=O [Glutaraldehyde, Pentane-1,5-dial] | – | – | – | – | – | – | – | – | – | – | fold increase in growth compared to the highest level seen in the other biocides ([1]; 4° C., 500 ppm): 15.8 fold; fold increase in copy number compared to the highest count in the invention formulation biocide flasks ([1]; 25° C., 500 ppm): 670 fold; 7 day DNA (copies) ([1]; 4° C.): 2.60E+04 copies; 14 day DNA (copies) ([1]; 4° C.): 1.11E+08 copies; 21 day DNA (copies) ([1]; 4° C.): 7.22E+07 copies; 7 day DNA (copies) ([1]; 25° C.): 8.85E+04 copies; 14 day DNA (copies) ([1]; 25° C.): 1.00E+03 copies; 21 day DNA (copies) ([1]; 25° C.): 2.51E+10 copies
CN1CSC(=S)N(C)C1 [Dazomat, Tetrahydro-3,5-dimethyl-2H-1,3,5-thiadiazine-2-thione] | 2.5E+02 cells per mL | 2.5E+02 cells per mL | 4.5E+02 cells per mL | 2.5E+04 cells per mL | 2.0E+02 cells per mL | 1.0E+00 cells per mL | 4.5E+02 cells per mL | 4.5E+03 cells per mL | 2.5E+05 cells per mL | 2.5 log | log reduction of APB numbers ([2]; exposure time of 24 hours): 0.5 log; log reduction of planktonic SRB ([3]; exposure time of 24 hours): did not result in a significant reduction
CC1CN(CN2COC(C)C2)CO1 (stereo not shown) [MBMO, N, N′-Methylene bis(5-methyloxazolidine)] | 7.5E+02 cells per mL | 7.5E+02 cells per mL | 4.5E+01 cells per mL | 9.5E+03 cells per mL | 4.0E+01 cells per mL | 1.0E+00 cells per mL | 9.5E+03 cells per mL | 4.5E+03 cells per mL | 2.5E+02 cells per mL | 1 log | further log reduction of GHB numbers ([4]; after 28 days): 2 log
